± gives the standard deviation of the averaged measurements. Each block holds one compound with its values, some of them ahead of it.
Test system: McpC ligand-binding domain (Salmonella Typhimurium SL1344)
Assay: protein melting temperature (Tm) in presence of compound (degrees C); higher = more thermal stabilisation (possible ligand binding)
Conditions: compound stock concentration: 10-20 mM, 2 uL in 10 uL reaction

- protein melting temperature (Biolog plate: PM01): 44.3
SMILES: O=C(O)CC(CC(=O)O)C(=O)O [Tricarballylic acid]

- protein melting temperature (Biolog plate: PM02A): 44.1
SMILES: O=C(CO)[C@@H](O[C@H]1O[C@H](CO)[C@@H](O)[C@H](O)[C@H]1O)[C@H](O)[C@H](O)CO [Turanose]

- protein melting temperature (Biolog plate: PM02A): 44.3
SMILES: OC[C@@H](O)[C@H](O)[C@@H](O)CO [Xylitol]

- protein melting temperature (Biolog plate: PM01): 44.9
- protein melting temperature (Biolog plate: PM05): 42.9
SMILES: OC[C@H]1O[C@H](O)[C@H](O)[C@@H](O)[C@@H]1O [a-D-Glucose]

- protein melting temperature (Biolog plate: PM01): 44.6
- protein melting temperature (Biolog plate: PM05): 43.7
SMILES: CC[C@H](O)C(=O)O [a-Hydroxybutyric acid]

- protein melting temperature (Biolog plate: PM02A): 44.3
SMILES: CCCC(=O)C(=O)O [a-Keto-Valeric acid]

- protein melting temperature (Biolog plate: PM01): 43.9
- protein melting temperature (Biolog plate: PM05): 44
SMILES: CCC(=O)C(=O)O [a-Ketobutyric acid]

- protein melting temperature (Biolog plate: PM01): 44.9
SMILES: CO[C@H]1O[C@H](CO)[C@H](O)[C@H](O)[C@H]1O [a-Methyl-D-Galactoside]

- protein melting temperature (Biolog plate: PM02A): 44.2
SMILES: CO[C@H]1O[C@H](CO)[C@@H](O)[C@H](O)[C@H]1O [a-Methyl-D-Glucoside]

- protein melting temperature (Biolog plate: PM02A): 44.9
SMILES: CO[C@H]1O[C@H](CO)[C@@H](O)[C@H](O)[C@@H]1O [a-Methyl-D-Mannoside]

- protein melting temperature (Biolog plate: PM04A): 44.3
SMILES: O=P(O)(O)OC(CO)CO [b-Glycerol Phosphate]

- protein melting temperature (Biolog plate: PM02A): 44.6
SMILES: C[C@@H](O)CC(=O)O [b-Hydroxybutyric acid]

- protein melting temperature (Biolog plate: PM02A): 43.7
SMILES: CO[C@@H]1O[C@H](CO)[C@H](O)[C@H](O)[C@H]1O [b-Methyl-D-Galactoside]

- protein melting temperature (Biolog plate: PM01): 44.7
SMILES: CO[C@@H]1O[C@H](CO)[C@@H](O)[C@H](O)[C@H]1O [b-Methyl-D-Glucoside]

- protein melting temperature (Biolog plate: PM05): 43.8
SMILES: NCC(=O)CCC(=O)O [d-Amino-levulinic acid]

- protein melting temperature (Biolog plate: PM02A): 43.7
SMILES: OC[C@@H](O)[C@@H](O)CO [i-Erythritol]

Further lines, the compound ahead of its results:

SMILES: Cc1ncc(C[n+]2csc(CCOP(=O)(O)OP(=O)(O)O)c2C)c(N)n1 [Thiamine Pyrophosphate]
- protein melting temperature (Biolog plate: PM05): 43.7

SMILES: OP(O)(O)=S [Thiophosphate]
- protein melting temperature (Biolog plate: PM04A): 43.88 ± 0.26

SMILES: O=S(O)(O)=S [Thiosulfate]
- protein melting temperature (Biolog plate: PM04A): 42.8

SMILES: NC(N)=S [Thiourea]
- protein melting temperature (Biolog plate: PM04A): 44.6

SMILES: Cc1cn([C@H]2C[C@H](OP(=O)(O)O)[C@@H](CO)O2)c(=O)[nH]c1=O [Thymidine 3`-Monophosphate]
- protein melting temperature (Biolog plate: PM04A): 43.6

SMILES: Cc1cn([C@H]2C[C@H](O)[C@@H](COP(=O)(O)O)O2)c(=O)[nH]c1=O [Thymidine 5`-Monophosphate]
- protein melting temperature (Biolog plate: PM04A): 43.7

SMILES: Cc1cn([C@H]2C[C@H](O)[C@@H](CO)O2)c(=O)[nH]c1=O [Thymidine]
- protein melting temperature (Biolog plate: PM01): 44.6
- protein melting temperature (Biolog plate: PM03B): 45.1
- protein melting temperature (Biolog plate: PM05): 44.7

SMILES: Cc1c[nH]c(=O)[nH]c1=O [Thymine]
- protein melting temperature (Biolog plate: PM03B): 45.1
- protein melting temperature (Biolog plate: PM05): 43

SMILES: CCOP(=O)(OCC)OCC [Triethyl Phosphate]
- protein melting temperature (Biolog plate: PM04A): 44.9

SMILES: O=P1(O)OP(=O)(O)OP(=O)(O)O1 [Trimetaphosphate]
- protein melting temperature (Biolog plate: PM04A): 44.7

SMILES: CCCCCCCC/C=C\CCCCCCCC(=O)OCCOCC(OCCO)C1OCC(OCCO)C1OCCO (centres undefined) [Tween 80]
- protein melting temperature (Biolog plate: PM01): 45.3
- protein melting temperature (Biolog plate: PM05): 43.9

SMILES: NCCc1ccc(O)cc1 [Tyramine]
- protein melting temperature (Biolog plate: PM01): 43.9
- protein melting temperature (Biolog plate: PM03B): 44.8

SMILES: O=c1cc[nH]c(=O)[nH]1 [Uracil]
- protein melting temperature (Biolog plate: PM03B): 45.7
- protein melting temperature (Biolog plate: PM05): 42.7

SMILES: NC(N)=O [Urea]
- protein melting temperature (Biolog plate: PM03B): 46.5

SMILES: Oc1nc(O)c2nc(O)[nH]c2n1 [Uric acid]
- protein melting temperature (Biolog plate: PM03B): 44.4

SMILES: O=c1ccn([C@@H]2O[C@H](CO)[C@@H](O)[C@H]2OP(=O)(O)O)c(=O)[nH]1 [Uridine 2`-Monophosphate]
- protein melting temperature (Biolog plate: PM04A): 43.8

SMILES: O=c1ccn([C@@H]2O[C@H](CO)[C@@H](OP(=O)(O)O)[C@H]2O)c(=O)[nH]1 [Uridine 3`-Monophosphate]
- protein melting temperature (Biolog plate: PM04A): 43.5

SMILES: O=c1[nH]c(=O)c2nc[nH]c2[nH]1 [Xanthine]
- protein melting temperature (Biolog plate: PM03B): 44.5

SMILES: OC[C@H]1O[C@@H](n2cnc3c(O)nc(O)nc32)[C@H](O)[C@@H]1O [Xanthosine]
- protein melting temperature (Biolog plate: PM03B): 44.3

SMILES: O=C1CC[C@@H](C(=O)O)O1 [a-Hydroxyglutaric acid-g-Lactone]
- protein melting temperature (Biolog plate: PM01): 45.3

SMILES: OC[C@H]1O[C@@H]2O[C@H]3[C@H](O)[C@@H](O)[C@@H](O[C@H]4[C@H](O)[C@@H](O)[C@@H](O[C@H]5[C@H](O)[C@@H](O)[C@@H](O[C@H]6[C@H](O)[C@@H](O)[C@@H](O[C@H]7[C@H](O)[C@@H](O)[C@@H](O[C@H]8[C@H](O)[C@@H](O)[C@@H](O[C@H]1[C@H](O)[C@H]2O)O[C@@H]8CO)O[C@@H]7CO)O[C@@H]6CO)O[C@@H]5CO)O[C@@H]4CO)O[C@@H]3CO [b-Cyclodextrin]
- protein melting temperature (Biolog plate: PM02A): 45.4

SMILES: CO[C@@H]1O[C@H](C(=O)O)[C@@H](O)[C@H](O)[C@H]1O [b-Methyl-D-Glucuronic acid]
- protein melting temperature (Biolog plate: PM02A): 44.1

SMILES: CO[C@@H]1OC[C@@H](O)[C@H](O)[C@H]1O [b-Methyl-D-Xyloside]
- protein melting temperature (Biolog plate: PM02A): 44.2

SMILES: NC(=O)c1ccc[n+](C2OC(COP(=O)([O-])OP(=O)(O)OCC3OC(n4cnc5c(N)ncnc54)C(O)C3O)C(O)C2O)c1 (centres undefined) [b-Nicotinamide Adenine Dinucleotide]
- protein melting temperature (Biolog plate: PM05): 44.8

SMILES: NCCc1ccccc1 [b-Phenylethylamine]
- protein melting temperature (Biolog plate: PM03B): 44.6

SMILES: NCCCCCC(=O)O [e-Amino-N-Caproic acid]
- protein melting temperature (Biolog plate: PM03B): 44.4

SMILES: NCCCC(=O)O [g-Amino-N-Butyric acid]
- protein melting temperature (Biolog plate: PM02A): 44.4
- protein melting temperature (Biolog plate: PM03B): 44

SMILES: OC[C@H]1O[C@@H]2O[C@H]3[C@H](O)[C@@H](O)[C@@H](O[C@H]4[C@H](O)[C@@H](O)[C@@H](O[C@H]5[C@H](O)[C@@H](O)[C@@H](O[C@H]6[C@H](O)[C@@H](O)[C@@H](O[C@H]7[C@H](O)[C@@H](O)[C@@H](O[C@H]8[C@H](O)[C@@H](O)[C@@H](O[C@H]9[C@H](O)[C@@H](O)[C@@H](O[C@H]1[C@H](O)[C@H]2O)O[C@@H]9CO)O[C@@H]8CO)O[C@@H]7CO)O[C@@H]6CO)O[C@@H]5CO)O[C@@H]4CO)O[C@@H]3CO [g-Cyclodextrin]
- protein melting temperature (Biolog plate: PM02A): 44.7

SMILES: O=C(O)CCCO [g-Hydroxybutyric acid]
- protein melting temperature (Biolog plate: PM02A): 44.2

SMILES: O=C(O)Cc1cccc(O)c1 [m-Hydroxyphenyl Acetic acid]
- protein melting temperature (Biolog plate: PM01): 44.9

SMILES: Nc1ccc(C(=O)O)cc1 [p-Amino-Benzoic acid]
- protein melting temperature (Biolog plate: PM05): 43.7

SMILES: Nc1ccc(S(=O)(=O)O)cc1 [p-Aminobenzene Sulfonic acid]
- protein melting temperature (Biolog plate: PM04A): 44.5

SMILES: O=C(O)Cc1ccc(O)cc1 [p-Hydroxyphenyl Acetic acid]
- protein melting temperature (Biolog plate: PM01): 45.3
